We go through 1 molecule from PMC8945229, “Development and Biological Characterization of a Novel Selective TrkA Agonist with Neuroprotective Properties against Amyloid Toxicity” (Biomedicines, 2022).

In general, IC50 refers to the point on the concentration scale where inhibition reaches its midpoint.

The structures appear in SMILES notation.

In one assay the test system is NIH-3T3-TrkB cells. Briefly: CellTox assay in serum-starved NIH-3T3-TrkB cells. The conditions noted are these: 24hrs. The format is cell-based. Here is the method:
treated with ENT-A013 (500nM) or Neurotrophin-3 (100ng/ml) for 30’ and then subjected to Western Blot against phosphorylated TrkC, Akt and Erk1/2. […]
phosphorylated any of those. (D) CellTox assay was performed in NIH-3T3-TrkB cells that were starved from serum and treated with ENT-A013 or BDNF for 24hrs. Quantification (E) […]
negative control (Serum Free).
Supplementary Figure S3: Primary DRG neurons were cultured in the presence of ENT-A013 (500nM, supplemented every 48hrs) and a neutralizing antibody against NGF for 5 days and then neurite length was measured by immunostaining against Tuj1 .
Supplementary Figure S4: Primary hippocampal neurons at 14-16 DIV were treated with oligomeric Aβ and in the presence of ENT-A013 (500nM, supplemented every 24hrs) for 48hrs and then were subjected to Western Blot against phosphorylated JNK. A representative blot […]

A further assay has as its system γ-secretase. Description: γ-secretase activity / APP processing in U2OS APP-C99-tGFP cells. Particulars: 6 h. The format is cell-based. The procedure:
PC12 and HEK293T cells were obtained from LGC Promochem GmbH (Teddington, UK) and cultured under the conditions specified by the manufacturer. NIH3T3 cells were stably transfected with human TrkB plasmid. PC12 cells were grown in DMEM medium (11965084, Gibco, Grand Island, NY, USA) containing 10% Horse Serum (16050122, Gibco, Grand Island, NY, USA), 5% Fetal Bovine Serum (10270106, Gibco, Grand Island, NY, USA), 100 units/mL Penicillin and 0.1 mg/mL Streptomycin (15140122, Gibco, Grand Island, NY, USA) at 5% CO2 and 37 °C. Cells were used between passages 5–20. HEK293T and NIH3T3 cells were grown in the same medium as PC12 cells supplemented with 10% Fetal Bovine Serum and lacking Horse Serum. For transient transfection of HEK293T cells, lipofectamine was used and cells were transfected with human p75^NTR and Traf6 plasmids. To determine the intracellular activity of endogenous secretases, we tagged (tGFP) a truncated mutant (Tm) of APP containing the original amino acids sequence from M516 to N773. This Tm conserves the secretases cleavage sites, clathrin binding site, tau protein binding site, collagen binding site and some glycosylation sites critical for protein localization and intracellular trafficking. The cDNA of the TmAPP gene was amplified by PCR and subcloned into pturbo-GFP vector. The construction was transfected into U2OS cells (ATCC Cat Number HTB-96) using Lipofectamine LTX (Thermo Fisher Scientific, Waltham, MA, USA). After 48 h, individual cells were plated in MTP96 plates using F.SIGHT (CYTENA GmbH, Freiburg, Germany), and cultured in complete medium containing 250 μg/mL G418 for selection. The selection medium was changed every two to three days. The cells were allowed to grow for 3 to 4 weeks, after which clones were isolated for further analysis. Resistant clones were checked by RT-PCR and epifluorescence microscopy.
The Alzheimer’s Disease (AD) phenotype is partly attributed to the toxic effects caused by oligmeric Aβ, which results in reduced neuronal trophic support, caused by deregulation of neurotrophic signaling. It is therefore reasonable that a small molecule that can selectively activate TrkA signaling and promote neuronal survival could alleviate the detrimental effects caused by toxic Aβ oligomers, especially during the early phases of the disease or modulate APP misprocessing and therefore reduce the production of the toxic Aβ. The U2OS stably expressing APP-C99-tGFP cell line was used in order to monitor γ-secretase activity, the process responsible for Aβ production from APP. The assay achieves this by measuring the levels of fluorescent APP-C99 construct produced by β-secretase activity. When γ-secretase is active, the construct is cleaved, leading to Aβ production. […] Therefore, higher fluorescence levels correspond to decreased γ-secretase activity and Aβ aggregate formation by extension. […] In addition, in order to investigate whether ENT-A013 can protect cells against Aβ-induced toxicity we isolated neurons from the hippocampus of E17.5 mouse embryos, a brain area that is heavily affected in AD. Neurons were left in culture for 16–18 DIV and then were treated with oligomeric Aβ and ENT-A013 for 48 h. Subsequently, cells were fixed and cell death was assessed using TUNEL assay.
(A,B) Primary hippocampal neurons were treated for 48 h with oligomeric Aβ in the presence of ENT-A013 and TUNEL assay was used to quantify cell death. Representative images from 3 independent experiments. Data are shown as ±SEM. One-way ANOVA, Tukey’s Test correction: ** p < 0.01; *** p < 0.001. (C) Aggregate formation on untreated cells, treated with DAPT inhibitor of γ-secretase or with compound ENT-A013. […] Aggregate formation was quantified with a BD Pathway 855 High-Content Bioimager and Attonvision software.

Turning to `CC12CCC(O)CC1=CCC1C2CCC2(C)C1CCC21CC1C=CBr` [ENT-A013, (2′R,3S,17S)-2′-(2-Bromovinyl)-5-Androstene-17,1′-Cyclopropan-3-ol], in the assay with NIH-3T3-TrkB cells, the “cell death vs negative control (Serum Free) (in words)” value is listed as “no significant difference”. Also, the “increase in APP spot levels compared to DAPT” value turned out to be 166.3% with γ-secretase (10 μM), 246.4% in the assay with γ-secretase (30 μM), 243.9% in the assay on γ-secretase (100 μM) and 239.9% in the assay with γ-secretase (300 μM). Also, in the assay with γ-secretase (Homo sapiens, U2OS, 100 nM to 300 μM, read-out: IC50 (γ-secretase activity, aggregate formation)), the IC50 is 93 µM.
